Reference: patent US11207325B2, “Triazolopyrimidine compounds and uses thereof” (Novartis AG, priority 2014, dated 2021)

Test system: H3K27 methylation in G401 cell
Assay: ELISA (H3K27 methylation) assay
Format: cell-based
Conditions: Homo sapiens, G-401; ELISA Qualified assay (H3K27 methylation); read-out: (c) IC50 (μM), ELISA Qualified
Text: ELISA (H3K27 Methylation) Assay

| IC50 [µM] | SMILES |
| --- | --- |
| 0.0052 | COc1cc(-c2cnc(NCc3c(F)ccc4c3CCO4)n3cnnc23)ccn1 [Example 145, N-((5-fluoro-2,3-dihydrobenzofuran-4-yl)methyl)-8-(2-methoxypyridin-4-yl)-[1,2,4]triazolo[4,3-c]pyrimidin-5-amine] |
| 0.0263 | CCOc1cc(C)c(-c2cnc(NCc3c(F)ccc4c3CCO4)n3cnnc23)cn1 [Example 196, 8-(6-ethoxy-4-methylpyridin-3-yl)-N-((5-fluoro-2,3-dihydrobenzofuran-4-yl)methyl)-[1,2,4]triazolo[4,3-c]pyrimidin-5-amine] |
| 0.0721 | Fc1ccc2c(c1CNc1ncc(-c3ccnc(N4CCOCC4)c3)c3nncn13)CCO2 [Example 120, N-((5-fluoro-2,3-dihydrobenzofuran-4-yl)methyl)-8-(2-morpholinopyridin-4-yl)-[1,2,4]triazolo[4,3-c]pyrimidin-5-amine] |
| 0.0045 | Cc1nc(OC2CC2)ncc1-c1cnc(NCc2c(F)ccc3c2CCO3)n2cnnc12 [Example 225, 8-(2-cyclopropoxy-4-methylpyrimidin-5-yl)-N-((5-fluoro-2,3-dihydrobenzofuran-4-yl)methyl)-[1,2,4]triazolo[4,3-c]pyrimidin-5-amine] |
| 0.0148 | Fc1ccc2c(c1CNc1ncc(-c3cnn(C4CC4)c3)c3nncn13)CCO2 [Example 150, 8-(1-cyclopropyl-1H-pyrazol-4-yl)-N-((5-fluoro-2,3-dihydrobenzofuran-4-yl)methyl)-[1,2,4]triazolo[4,3-c]pyrimidin-5-amine] |
| 0.0409 | Fc1ccc2c(c1CNc1ncc(-c3ccc(N4CCOCC4)nc3)c3nncn13)CCO2 [Example 92, N-((5-fluoro-2,3-dihydrobenzofuran-4-yl)methyl)-8-(6-morpholinopyridin-3-yl)-[1,2,4]triazolo[4,3-c]pyrimidin-5-amine] |
| 0.0208 | Cc1c(-c2cnc(NCc3c(F)ccc4c3CCO4)n3cnnc23)ccnc1C(F)F [Example 181, 8-(2-(difluoromethyl)-3-methylpyridin-4-yl)-N-((5-fluoro-2,3-dihydrobenzofuran-4-yl)methyl)-[1,2,4]triazolo[4,3-c]pyrimidin-5-amine] |
| 0.0086 | Fc1ccc2c(c1CNc1ncc(-c3ccncc3)c3nncn13)CCO2 [Example 45, N-((5-fluoro-2,3-dihydrobenzofuran-4-yl)methyl)-8-(pyridin-4-yl)-[1,2,4]triazolo[4,3-c]pyrimidin-5-amine] |
| 0.183 | COC(=O)N1CCN(c2ccc(-c3cnc(NCc4cccc5c4CCO5)n4cnnc34)cn2)CC1 [Example 97, methyl 4-(5-(5-(((2,3-dihydrobenzofuran-4-yl)methyl)amino)-[1,2,4]triazolo[4,3-c]pyrimidin-8-yl)pyridin-2-yl)piperazine-1-carboxylate] |
| 0.0044 | Cc1nccc(-c2cnc(NCc3c(F)ccc4c3CCO4)n3cnnc23)c1C [Example 177, 8-(2,3-dimethylpyridin-4-yl)-N-((5-fluoro-2,3-dihydrobenzofuran-4-yl)methyl)-[1,2,4]triazolo[4,3-c]pyrimidin-5-amine] |
| 0.0159 | Fc1ccc2c(c1CNc1ncc(-c3cncnc3)c3nncn13)CCO2 [Example 206, N-((5-fluoro-2,3-dihydrobenzofuran-4-yl)methyl)-8-(pyrimidin-5-yl)-[1,2,4]triazolo[4,3-c]pyrimidin-5-amine] |
| 0.0134 | CS(=O)(=O)c1ccc(-c2cnc(NCc3c(F)ccc4c3CCO4)n3cnnc23)cc1 [Example 37, N-((5-fluoro-2,3-dihydrobenzofuran-4-yl)methyl)-8-(4-(methylsulfonyl)phenyl)-[1,2,4]triazolo[4,3-c]pyrimidin-5-amine] |
| 0.0106 | CCn1nccc1-c1cnc(NCc2c(F)ccc3c2CCO3)n2cnnc12 [Example 143, 8-(1-ethyl-1H-pyrazol-5-yl)-N-((5-fluoro-2,3-dihydrobenzofuran-4-yl)methyl)-[1,2,4]triazolo[4,3-c]pyrimidin-5-amine] |
| 0.006 | Fc1ccc2c(c1CNc1ncc(-c3cnccc3Cl)c3nncn13)CCO2 [Example 124] |
| 0.0358 | Fc1ccc2c(c1CNc1ncc(-c3ccccn3)c3nncn13)CCO2 [Example 231, N-((5-fluoro-2,3-dihydrobenzofuran-4-yl)methyl)-8-(pyridin-2-yl)-[1,2,4]triazolo[4,3-c]pyrimidin-5-amine] |
| 0.0072 | COc1cc(Cl)c(-c2cnc(NCc3c(F)ccc4c3CCO4)n3cnnc23)cn1 [Example 138, 8-(4-chloro-6-methoxypyridin-3-yl)-N-((5-fluoro-2,3-dihydrobenzofuran-4-yl)methyl)-[1,2,4]triazolo[4,3-c]pyrimidin-5-amine] |
| 0.028 | Cc1cc(S(C)(=O)=O)ncc1-c1cnc(NCc2c(F)ccc3c2CCO3)n2cnnc12 [Example 127, N-((5-fluoro-2,3-dihydrobenzofuran-4-yl)methyl)-8-(4-methyl-6-(methylsulfonyl)pyridin-3-yl)-[1,2,4]triazolo[4,3-c]pyrimidin-5-amine] |

Second part, the molecule before the results:

| SMILES | IC50 [µM] |
| --- | --- |
| CS(=O)(=O)c1ccc(-c2cnc(NCc3cccc4c3CCO4)n3cnnc23)c(F)c1 [Example 26, N-((2,3-dihydrobenzofuran-4-yl)methyl)-8-(2-fluoro-4-(methylsulfonyl)phenyl)-[1,2,4]triazolo[4,3-c]pyrimidin-5-amine] | 0.0448 |
| Cc1nn(C)cc1-c1cnc(NCc2cccc3c2CCO3)n2cnnc12 [Example 30, N-((2,3-dihydrobenzofuran-4-yl)methyl)-8-(1,3-dimethyl-1H-pyrazol-4-yl)-[1,2,4]triazolo[4,3-c]pyrimidin-5-amine] | 0.069 |
| CN(C)CCc1cccc(-c2cnc(NCc3cccc4c3CCO4)n3cnnc23)c1 [Example 89, N-((2,3-dihydrobenzofuran-4-yl)methyl)-8-(3-(2-(dimethylamino)ethyl)phenyl)-[1,2,4]triazolo[4,3-c]pyrimidin-5-amine] | 0.101 |
| Cc1nn(C[C@@H](C)O)c(C)c1-c1cnc(NCc2c(F)ccc3c2CCO3)n2cnnc12 [Example 186, (2R)-1-(4-(5-(((5-fluoro-2,3-dihydrobenzofuran-4-yl)methyl)amino)-[1,2,4]triazolo[4,3-c]pyrimidin-8-yl)-3,5-dimethyl-1H-pyrazol-1-yl)propan-2-ol] | 0.0068 |
| Cc1ncccc1-c1cnc(NCc2cccc3c2CCO3)n2cnnc12 [Example 123, N-((2,3-dihydrobenzofuran-4-yl)methyl)-8-(2-methylpyridin-3-yl)-[1,2,4]triazolo[4,3-c]pyrimidin-5-amine] | 0.0197 |
| Cc1nc(C(=O)N(C)C)ccc1-c1cnc(NCc2c(F)ccc3c2CCO3)n2cnnc12 [Example 199, 5-(5-(((5-fluoro-2,3-dihydrobenzofuran-4-yl)methyl)amino)-[1,2,4]triazolo[4,3-c]pyrimidin-8-yl)-N,N,6-trimethylpicolinamide] | 0.005 |
| CN(C)C(=O)c1cccc(-c2cnc(NCc3cccc4c3CCO4)n3cnnc23)c1 [Example 43, 3-(5-(((2,3-dihydrobenzofuran-4-yl)methyl)amino)-[1,2,4]triazolo[4,3-c]pyrimidin-8-yl)-N,N-dimethylbenzamide] | 0.247 |
| CS(=O)(=O)Nc1ccc(-c2cnc(NCc3cccc4c3CCO4)n3cnnc23)cc1F [Example 33, N-(4-(5-(((2,3-dihydrobenzofuran-4-yl)methyl)amino)-[1,2,4]triazolo[4,3-c]pyrimidin-8-yl)-2-fluorophenyl)methanesulfonamide] | 0.297 |
| Fc1ccc2c(c1CNc1ncc(-n3cncn3)c3nncn13)CCO2 [Example 241, N-((5-fluoro-2,3-dihydrobenzofuran-4-yl)methyl)-8-(1H-1,2,4-triazol-1-yl)-[1,2,4]triazolo[4,3-c]pyrimidin-5-amine] | 0.0284 |
| CC(C)n1cc(-c2cnc(NCc3c(F)ccc4c3CCO4)n3cnnc23)c(C(F)(F)F)n1 [Example 148, N-((5-fluoro-2,3-dihydrobenzofuran-4-yl)methyl)-8-(1-isopropyl-3-(trifluoromethyl)-1H-pyrazol-4-yl)-[1,2,4]triazolo[4,3-c]pyrimidin-5-amine] | 0.0252 |
| O=C(c1ccc(-c2cnc(NCc3cccc4c3CCO4)n3cnnc23)cc1)N1CCNCC1 [Example 41, (4-(5-(((2,3-dihydrobenzofuran-4-yl)methyl)amino)-[1,2,4]triazolo[4,3-c]pyrimidin-8-yl)phenyl)(piperazin-1-yl)methanone] | 0.375 |
| Cc1cc(-c2cnc(NCc3cccc4c3CCO4)n3cnnc23)cnc1N1CCN(C)CC1 [Example 36, N-((2,3-dihydrobenzofuran-4-yl)methyl)-8-(5-methyl-6-(4-methylpiperazin-1-yl)pyridin-3-yl)-[1,2,4]triazolo[4,3-c]pyrimidin-5-amine] | 0.0683 |
| Cc1nn(C[C@H](C)O)c(C)c1-c1cnc(NCc2c(F)ccc3c2CCO3)n2cnnc12 [Example 187, (2S)-1-(4-(5-(((5-fluoro-2,3-dihydrobenzofuran-4-yl)methyl)amino)-[1,2,4]triazolo[4,3-c]pyrimidin-8-yl)-3,5-dimethyl-1H-pyrazol-1-yl)propan-2-ol] | 0.012 |
| N#Cc1ccc(-c2cnc(NCc3cccc4c3CCO4)n3cnnc23)cn1 [Example 62, 5-(5-(((2,3-dihydrobenzofuran-4-yl)methyl)amino)-[1,2,4]triazolo[4,3-c]pyrimidin-8-yl)picolinonitrile] | 0.339 |
| O=C1CN(CCc2ccc(-c3cnc(NCc4cccc5c4CCO5)n4cnnc34)cn2)CCN1 [Example 109, 4-(2-(5-(5-(((2,3-dihydrobenzofuran-4-yl)methyl)amino)-[1,2,4]triazolo[4,3-c]pyrimidin-8-yl)pyridin-2-yl)ethyl)piperazin-2-one] | 1.21 |
| CN(C)CCc1ccc(-c2cnc(NCc3cccc4c3CCO4)n3cnnc23)cn1 [Example 53, N-((2,3-dihydrobenzofuran-4-yl)methyl)-8-(6-(2-(dimethylamino)ethyl)pyridin-3-yl)-[1,2,4]triazolo[4,3-c]pyrimidin-5-amine] | 0.141 |
| CC(=O)N1CCN(CCc2ccc(-c3cnc(NCc4cccc5c4CCO5)n4cnnc34)cn2)CC1 [Example 108, 1-(4-(2-(5-(5-(((2,3-dihydrobenzofuran-4-yl)methyl)amino)-[1,2,4]triazolo[4,3-c]pyrimidin-8-yl)pyridin-2-yl)ethyl)piperazin-1-yl)ethanone] | 0.173 |
